From PubChem BioAssay AID1963850 (Molecular Pharmacology Branch, DTP, NCI, 2024)

Tested on: 192522-019-R-J2-PDC complex tumor spheroid viability
Assay: Anticancer human tumor 192522-019-R-J2-PDC patient-derived colon adenocarcinoma cell line growth inhibition [POLQ]
Details: for IC50: curve of first compound; for viability, T/C: stronger effect = lower value
In short: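 Patient-derived tumour cells were co-cultured with HUVEC and mesenchymal stem cells as multicellular spheroids at 37 °C. They were treated with POLQ inhibitors (novobiocin, ART-558, RP6685) alone or combined with other agents. Top concentrations were at or near clinical Cmax (otherwise 10 microM; SN-38 at 1 microM), decreasing in half-log steps.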

[1] = second compound 0.0316 µM, first compound 0.0316 µM
[2] = second compound 0.0316 µM, first compound 0.1 µM
[3] = second compound 0.0316 µM, first compound 0.316 µM
[4] = second compound 0.0316 µM, first compound 1 µM
[5] = second compound 0.0316 µM, first compound 3.16 µM
[6] = second compound 0.0316 µM, first compound 10 µM
[7] = second compound 0.1 µM, first compound 0.0316 µM
[8] = second compound 0.1 µM, first compound 0.1 µM
[9] = second compound 0.1 µM, first compound 0.316 µM
[10] = second compound 0.1 µM, first compound 1 µM
[11] = second compound 0.1 µM, first compound 3.16 µM
[12] = second compound 0.1 µM, first compound 10 µM
[13] = second compound 0.316 µM, first compound 0.0316 µM
[14] = second compound 0.316 µM, first compound 0.1 µM
[15] = second compound 0.316 µM, first compound 0.316 µM
[16] = second compound 0.316 µM, first compound 1 µM
[17] = second compound 0.316 µM, first compound 3.16 µM
[18] = second compound 0.316 µM, first compound 10 µM
[19] = second compound 1 µM, first compound 0.0316 µM
[20] = second compound 1 µM, first compound 0.1 µM
[21] = second compound 1 µM, first compound 0.316 µM
[22] = second compound 1 µM, first compound 1 µM
[23] = second compound 1 µM, first compound 3.16 µM
[24] = second compound 1 µM, first compound 10 µM
[25] = second compound 3.16 µM, first compound 0.0316 µM
[26] = second compound 3.16 µM, first compound 0.1 µM
[27] = second compound 3.16 µM, first compound 0.316 µM
[28] = second compound 3.16 µM, first compound 1 µM
[29] = second compound 3.16 µM, first compound 3.16 µM
[30] = second compound 3.16 µM, first compound 10 µM
[31] = second compound 10 µM, first compound 0.0316 µM
[32] = second compound 10 µM, first compound 0.1 µM
[33] = second compound 10 µM, first compound 0.316 µM
[34] = second compound 10 µM, first compound 1 µM
[35] = second compound 10 µM, first compound 3.16 µM
[36] = second compound 10 µM, first compound 10 µM
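Also: spheroids exposed to drugs for seven days before reading.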
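For viability, T/C in this document: 100% = DMSO vehicle control viability in luminescence.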

With `COc1cc(C2c3cc4c(cc3C(OC3OC5COC(C)OC5C(O)C3O)C3COC(=O)C23)OCO4)cc(OC)c1O` (stereo unspecified) + Nc1ccc(C#CCN(C(=O)Cc2ncc(C(F)(F)F)cc2C(F)(F)F)c2ccc(F)cc2)nn1 the IC50 (second compound 0.0316 µM) was > 10 µM, the IC50 (second compound 0.1 µM) was > 10 µM and the IC50 (second compound 0.316 µM) was > 10 µM. The IC50 (second compound 1 µM) was > 10 µM, the IC50 (second compound 3.16 µM) was > 10 µM and the IC50 (second compound 10 µM) was > 10 µM. For the same molecule, the viability, T/C [1] was 105%, the viability, T/C [2] was 98.2% and the viability, T/C [3] was 86.9%. For the same molecule, the viability, T/C [4] was 83.2%, the viability, T/C [5] was 68.9% and the viability, T/C [6] was 77.8%. The viability, T/C [7] was 110%, the viability, T/C [8] was 92.2% and the viability, T/C [9] was 97.5%. For the same molecule, the viability, T/C [10] was 93.4%, the viability, T/C [11] was 65.4% and the viability, T/C [12] was 80.4%. The viability, T/C [13] was 106%, the viability, T/C [14] was 100% and the viability, T/C [15] was 96.4%. For the same molecule, the viability, T/C [16] was 87%, the viability, T/C [17] was 67% and the viability, T/C [18] was 80%. It also gave a viability, T/C [19] of 100%, a viability, T/C [20] of 91.9% and a viability, T/C [21] of 98.2%. It also gave a viability, T/C [22] of 85.1%, a viability, T/C [23] of 73.9% and a viability, T/C [24] of 75%. For the same molecule, the viability, T/C [25] was 109%, the viability, T/C [26] was 96.4% and the viability, T/C [27] was 95.9%. For the same molecule, the viability, T/C [28] was 85.2%, the viability, T/C [29] was 72.7% and the viability, T/C [30] was 76.1%. For the same molecule, the viability, T/C [31] was 104%, the viability, T/C [32] was 101% and the viability, T/C [33] was 96.9%. It also gave a viability, T/C [34] of 78.6%, a viability, T/C [35] of 79.7% and a viability, T/C [36] of 72.2%.
Work on `COc1cccc(OCCCN)c1-c1cc(Nc2cnc(C#N)cn2)n[nH]1` + Nc1ccc(C#CCN(C(=O)Cc2ncc(C(F)(F)F)cc2C(F)(F)F)c2ccc(F)cc2)nn1 yielded an IC50 (second compound 0.0316 µM) of 0.0269 µM, an IC50 (second compound 0.1 µM) of 0.0257 µM and an IC50 (second compound 0.316 µM) of 0.0271 µM. It also gave an IC50 (second compound 1 µM) of 0.0281 µM, an IC50 (second compound 3.16 µM) of 0.0291 µM and an IC50 (second compound 10 µM) of 0.0269 µM. The viability, T/C (second compound 0.0316 µM, first compound 0.00316 µM) was 102%, the viability, T/C (second compound 0.0316 µM, first compound 0.01 µM) was 86% and the viability, T/C [1] was 44.1%. It also gave a viability, T/C [2] of 37.4%, a viability, T/C [3] of 40.7% and a viability, T/C [4] of 35.3%. It also gave a viability, T/C (second compound 0.1 µM, first compound 0.00316 µM) of 102%, a viability, T/C (second compound 0.1 µM, first compound 0.01 µM) of 78.4% and a viability, T/C [7] of 43.5%. The viability, T/C [8] was 39.4%, the viability, T/C [9] was 35% and the viability, T/C [10] was 36.3%. For the same molecule, the viability, T/C (second compound 0.316 µM, first compound 0.00316 µM) was 102%, the viability, T/C (second compound 0.316 µM, first compound 0.01 µM) was 81.4% and the viability, T/C [13] was 45.2%. For the same molecule, the viability, T/C [14] was 38.3%, the viability, T/C [15] was 37.5% and the viability, T/C [16] was 39.2%. For the same molecule, the viability, T/C (second compound 1 µM, first compound 0.00316 µM) was 96.8%, the viability, T/C (second compound 1 µM, first compound 0.01 µM) was 87.5% and the viability, T/C [19] was 45.7%. For the same molecule, the viability, T/C [20] was 40.6%, the viability, T/C [21] was 40.1% and the viability, T/C [22] was 40.5%. For the same molecule, the viability, T/C (second compound 3.16 µM, first compound 0.00316 µM) was 101%, the viability, T/C (second compound 3.16 µM, first compound 0.01 µM) was 85.2% and the viability, T/C [25] was 47.2%. It also gave a viability, T/C [26] of 44.6%, a viability, T/C [27] of 45.3% and a viability, T/C [28] of 40.9%. For the same molecule, the viability, T/C (second compound 10 µM, first compound 0.00316 µM) was 99.5%, the viability, T/C (second compound 10 µM, first compound 0.01 µM) was 66.7% and the viability, T/C [31] was 46.7%. It also gave a viability, T/C [32] of 43.1%, a viability, T/C [33] of 52.2% and a viability, T/C [34] of 46.8%.
With `O=C(c1cc(Cc2n[nH]c(=O)c3ccccc23)ccc1F)N1CCN(C(=O)C2CC2)CC1` + Nc1ccc(C#CCN(C(=O)Cc2ncc(C(F)(F)F)cc2C(F)(F)F)c2ccc(F)cc2)nn1 the IC50 (second compound 0.0316 µM) was > 10 µM, the IC50 (second compound 0.1 µM) was > 10 µM and the IC50 (second compound 0.316 µM) was > 10 µM. The IC50 (second compound 1 µM) was > 10 µM, the IC50 (second compound 3.16 µM) was > 10 µM and the IC50 (second compound 10 µM) was > 10 µM. The viability, T/C [1] was 105%, the viability, T/C [2] was 116% and the viability, T/C [3] was 106%. For the same molecule, the viability, T/C [4] was 105%, the viability, T/C [5] was 111% and the viability, T/C [6] was 104%. It also gave a viability, T/C [7] of 108%, a viability, T/C [8] of 104% and a viability, T/C [9] of 102%. The viability, T/C [10] was 102%, the viability, T/C [11] was 110% and the viability, T/C [12] was 105%. It also gave a viability, T/C [13] of 117%, a viability, T/C [14] of 105% and a viability, T/C [15] of 101%. It also gave a viability, T/C [16] of 112%, a viability, T/C [17] of 111% and a viability, T/C [18] of 95.6%. The viability, T/C [19] was 110%, the viability, T/C [20] was 102% and the viability, T/C [21] was 97.3%. It also gave a viability, T/C [22] of 104%, a viability, T/C [23] of 114% and a viability, T/C [24] of 106%. For the same molecule, the viability, T/C [25] was 116%, the viability, T/C [26] was 104% and the viability, T/C [27] was 103%. The viability, T/C [28] was 105%, the viability, T/C [29] was 106% and the viability, T/C [30] was 113%. It also gave a viability, T/C [31] of 107%, a viability, T/C [32] of 111% and a viability, T/C [33] of 110%. The viability, T/C [34] was 103%, the viability, T/C [35] was 110% and the viability, T/C [36] was 110%.
